The text below walks through data of US9643964B2, “3-(2-aminopyrimidin-4-yl)-5-(3-hydroxypropynyl)-1H-pyrrolo[2,3-C]pyridine derivatives as NIK inhibitors for the treatment of cancer” (Janssen Pharmaceutica NV, priority 2013, dated 2017).

In assay [1] the target is Recombinant Human NF-kappaB-Inducing Kinase (NIK/MAP3K14) (Homo sapiens, UniProt Q99558). In words: Biological Assay A2: inhibition of auto-phosphorylation of recombinant human NIK/MAP3K14 (AlphaScreen). The format is biochemical. The note with it: auto-phosphorylation; averaged over all measurements on all batches; read-out: αscreen IC50. Here is the method: Inhibition of Auto-Phosphorylation of Recombinant Human NF-kappaB-Inducing Kinase (NIK/MAP3K14) Activity (AlphaScreen®)
Recombinant Human NF-kappaB-Inducing Kinase (NIK/MAP3K14), sequence (Q99558 whole entry): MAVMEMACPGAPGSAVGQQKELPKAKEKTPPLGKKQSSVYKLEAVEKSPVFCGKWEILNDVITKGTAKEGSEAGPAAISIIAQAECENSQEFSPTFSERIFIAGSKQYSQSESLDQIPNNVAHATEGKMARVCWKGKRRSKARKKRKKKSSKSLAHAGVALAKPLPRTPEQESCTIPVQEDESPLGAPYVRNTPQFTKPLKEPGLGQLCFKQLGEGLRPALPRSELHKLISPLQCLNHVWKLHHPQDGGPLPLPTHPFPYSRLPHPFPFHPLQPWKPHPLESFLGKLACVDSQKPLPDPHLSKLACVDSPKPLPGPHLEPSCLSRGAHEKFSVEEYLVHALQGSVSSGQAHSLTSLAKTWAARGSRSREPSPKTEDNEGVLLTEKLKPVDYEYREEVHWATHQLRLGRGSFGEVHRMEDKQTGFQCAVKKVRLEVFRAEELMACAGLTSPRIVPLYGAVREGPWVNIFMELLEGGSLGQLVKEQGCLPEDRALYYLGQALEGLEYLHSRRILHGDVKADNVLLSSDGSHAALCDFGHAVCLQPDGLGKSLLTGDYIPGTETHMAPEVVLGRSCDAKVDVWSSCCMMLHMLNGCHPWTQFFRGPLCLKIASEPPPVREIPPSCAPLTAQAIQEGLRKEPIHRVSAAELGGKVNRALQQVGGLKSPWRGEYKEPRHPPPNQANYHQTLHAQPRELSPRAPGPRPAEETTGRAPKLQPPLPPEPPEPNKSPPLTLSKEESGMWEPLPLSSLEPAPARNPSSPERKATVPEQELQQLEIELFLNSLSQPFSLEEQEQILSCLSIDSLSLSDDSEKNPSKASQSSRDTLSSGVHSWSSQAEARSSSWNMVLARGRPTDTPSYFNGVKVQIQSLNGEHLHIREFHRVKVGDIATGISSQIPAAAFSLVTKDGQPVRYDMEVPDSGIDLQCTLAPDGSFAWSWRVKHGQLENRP
NIK/MAP3K14 auto-phosphorylation activity was measured using the AlphaScreen® (αscreen) format (Perkin Elmer). All compounds tested were dissolved in dimethyl sulfoxide (DMSO) and further dilutions were made in assay buffer. Final DMSO concentration was 1% (v/v) in assays. Assay buffer was 50 mM Tris pH 7.5 containing 1 mM EGTA (ethylene glycol tetraacetic acid), 1 mM DTT (dithiothreitol), 0.1 mM Na3VO4, 5 mM MgCl2, 0.01% Tween 20. Assays were carried out in 384 well Alphaplates (Perkin Elmer). Incubations consisted of compound, 25 microM Adenosine-5′-triphosphate (ATP), and 0.2 nM NIK/MAP3K14. Incubations were initiated by addition of GST-tagged NIK/MAP3K14 enzyme, carried out for 1 h at 25° C. and terminated by addition of stop buffer containing anti-phospho-IKK Ser176/180 antibody. Protein A Acceptor and Glutathione-Donor beads were added before reading using an EnVision® Multilabel Plate Reader (Perkin Elmer). Signal obtained in the wells containing blank samples was subtracted from all other wells and IC50's were determined by fitting a sigmoidal curve to % inhibition of control versus Log10 compound concentration.

For the next assay, the system named is LP-1 cells. In words: Biological Assay C: antiproliferative activity on LP-1 cells (CellTiter-Glo). The note with it: Homo sapiens, LP-1, 72 h, 72 hr treatment; averaged values. The format is cell-based, human. Here is the method: (§1) Determination of Antiproliferative Activity on LP-1, L-363 and JJN-3 Cells
(§2) All compounds tested were dissolved in DMSO and further dilutions were made in culture medium. Final DMSO concentration was 0.3% (v/v) in cell proliferation assays. Viability was assessed using CellTiter-Glo cell viability assay kit (Promega). The human LP-1, L-363 and JJN-3 cells (DSMZ) were cultured in RPMI 1640 medium supplemented with 2 mM L-glutamine, and 10% fetal calf serum (PAA). Cells were routinely kept as suspension cells at 37° C. in a humidified 5% CO2 atmosphere. Cells were passaged at a seeding density of 0.2×10^6/ml twice a week. Cells were seeded in black tissue culture treated 96-well plates (Perkin Elmer). Densities used for plating ranged from 2,000 to 6,000 cells per well in a total volume of 75 μl medium. After twenty four hours, drugs and/or solvents were added (25 μl) to a final volume of 100 μl. Following 72 hr of treatment plates were removed from the incubator and allowed to equilibrate to room temperature for approx 10 min. 100 μl CellTiter-Glo reagent was added to each well that was then covered (Perkin Elmer Topseal) and shaken on plate shaker for 10 min. Luminescence was measured on a HTS Topcount (Perkin Elmer). Within an experiment, the results for each treatment were the mean of 2 replicate wells. For initial screening purposes, compounds were tested using a 9 point dilution curve (serial 1:3 dilutions). For each experiment, controls (containing no drug) and a blank incubation (containing cells read at the time of compound addition) were run in parallel. The blank value was subtracted from all control and sample values. For each sample, the mean value for cell growth (in relative light units) was expressed as a percentage of the mean value for cell growth of the control.

The test system of another assay is L-363 cells. As to the kind of experiment: Biological Assay C: antiproliferative activity on L-363 cells (CellTiter-Glo). The class given is cell-based, human. The conditions noted are these: Homo sapiens, L-363, 72 h, 72 hr treatment; averaged values. Here is the method:
as §1, §2

The subject of another assay is JJN-3 cells. In words: Biological Assay C: antiproliferative activity on JJN-3 cells (CellTiter-Glo). The note with it: Homo sapiens, JJN-3, 72 h, 72 hr treatment; averaged values. The format is cell-based, human. Here is the method: as §1, §2

The structures appear in SMILES notation.

For the compound `CC(C)(O)C#Cc1cc2c(-c3nc(N)ncc3C#N)cn(CC3CCOCC3)c2cn1` [Compound 75], the IC50 in assay [1] amounted to 35 nM. Further, the EC50 in the assay with LP-1 cells was above 10000 nM; in the assay with L-363 cells it was 670 nM; with JJN-3 cells, 540 nM.
As for `CN1CCC(n2cc(-c3ccnc(N)n3)c3cc(C#CC(C)(C)O)ncc32)CC1` [Compound 77], the IC50 in assay [1] stood at 88 nM. In addition, the EC50 is 4000 nM in the assay with LP-1 cells, 320 nM in the assay on L-363 cells and 570 nM with JJN-3 cells.
As to `CC(C)N1CCC(n2cc(-c3ccnc(N)n3)c3cc(C#CC(C)(C)O)ncc32)CC1` [Compound 78], the IC50 in assay [1] turned out to be 130 nM. In addition, the values for the EC50 in the assay with LP-1 cells, in the assay on L-363 cells and with JJN-3 cells were 2000 nM, 410 nM and 580 nM, respectively.
`CCN1CCC(n2cc(-c3ccnc(N)n3)c3cc(C#CC(C)(C)O)ncc32)CC1` [Compound 79]: the IC50 in assay [1] turned out to be 47 nM. The EC50 stood at 2000 nM in the assay on LP-1 cells, 61 nM in the assay on L-363 cells and 160 nM with JJN-3 cells.
Turning to `CC(C)N1CC(n2cc(-c3ccnc(N)n3)c3cc(C#CC(C)(C)O)ncc32)C1` [Compound 80], the IC50 in assay [1] worked out at 76 nM. In addition, the EC50 in the assay on LP-1 cells amounted to 2500 nM; in the assay on L-363 cells, 160 nM; in the assay on JJN-3 cells it was 310 nM.
With `COCCCn1cc(-c2cc(C)nc(N)n2)c2cc(C#CC(C)(C)O)ncc21` [Compound 81], the IC50 in assay [1] was found to be 100 nM. Moreover, the EC50 with LP-1 cells came out at 28000 nM; in the assay on L-363 cells, 5900 nM; in the assay with JJN-3 cells it was 5700 nM.
Turning to `Cc1cnc(N)nc1-c1cn(CC2CCOCC2)c2cnc(C#CC(C)(C)O)cc12` [Compound 82], in assay [1], the IC50 was determined as 35 nM. Moreover, the EC50 with LP-1 cells came out at 13000 nM; with L-363 cells, 890 nM; in the assay on JJN-3 cells, 1100 nM.
Take `COCCCn1cc(-c2nc(N)ncc2C)c2cc(C#CC(C)(C)O)ncc21` [Compound 83]: the IC50 in assay [1] amounted to 86 nM. Besides, the EC50 in the assay on LP-1 cells amounted to 4700 nM; in the assay on L-363 cells, 550 nM; with JJN-3 cells, 670 nM.
Taken in the same sequence, the figures for `COCCCn1cc(-c2ccnc(N)n2)c2cc(C#CC(C)(C)O)nc(C)c21` [Compound 84] were 68 nM, 250 nM, 22 nM and 67 nM.
In the same order, the values of `CCN1CCC(n2cc(-c3nc(N)ncc3F)c3cc(C#CC(C)(C)O)ncc32)CC1` [Compound 85] are 33 nM, 190 nM, 15 nM and 44 nM.
Turning to `COCCCn1cc(-c2nc(N)ncc2F)c2cc(C#CC(C)(C)O)nc(C)c21` [Compound 86], the IC50 in assay [1] was found to be 11 nM. Further, the EC50 in the assay with LP-1 cells was 16 nM; in the assay on L-363 cells, 5.9 nM; in the assay with JJN-3 cells, 9.2 nM.
In the same order, the values of `COCCCn1cc(-c2nc(N)ncc2F)c2cc(C#CC3(O)CCCC3)ncc21` [Compound 87] are 9 nM, 1200 nM, 450 nM and 530 nM.
In the same order, the values of `COCCCn1cc(-c2nc(N)ncc2F)c2cc(C#CC(C)(O)C3CC3)ncc21` (stereo not drawn) [Compound 88] are 15 nM, 220 nM, 110 nM and 130 nM.
With `CNc1ncc(F)c(-c2cn(CCCOC)c3cnc(C#CC4(O)CCCC4)cc23)n1` [Compound 89], the IC50 in assay [1] is 130 nM. Moreover, the results for the EC50 with LP-1 cells, with L-363 cells and with JJN-3 cells were 7600 nM, 4200 nM and 3700 nM, respectively.
On to `CNc1ncc(F)c(-c2cn(CCCOC)c3cnc(C#CC(C)(C)O)cc23)n1` [Compound 90], for which, in assay [1], the IC50 is 44 nM. The EC50 came to 740 nM in the assay on LP-1 cells, 510 nM in the assay on L-363 cells and 720 nM in the assay with JJN-3 cells.
For `COCCCn1cc(-c2nc(N)ncc2F)c2cc(C#CC(C)(O)c3cc(C)on3)ncc21` (stereo not drawn) [Compound 91], the IC50 in assay [1] was found to be 12 nM. Moreover, the EC50 in the assay with LP-1 cells is 4900 nM; in the assay on L-363 cells, 470 nM; with JJN-3 cells, 1100 nM.
Taken in the same sequence, the figures for `COCCCn1cc(-c2nc(N)ncc2F)c2cc(C#CC(C)(C)O)nc(Cl)c21` [Compound 92] were 47 nM, 86 nM, 32 nM and 54 nM.
On to `COCCCn1cc(-c2nc(N)ncc2F)c2cc(C#CC3(O)CCCC3)nc(C3CC3)c21` [Compound 93], for which the IC50 in assay [1] came out at 10 nM. Further, the values for the EC50 with LP-1 cells, with L-363 cells and in the assay on JJN-3 cells were 860 nM, 250 nM and 310 nM, respectively.
Regarding `Nc1ncc(F)c(-c2cn(C3COC3)c3c(C4CC4)nc(C#CC4(O)CCCC4)cc23)n1` [Compound 94], the IC50 in assay [1] is 31 nM. Further, the EC50 in the assay with LP-1 cells was found to be 2700 nM; with L-363 cells, 200 nM; in the assay on JJN-3 cells, 300 nM.
Taken in the same sequence, the figures for `COCCCn1cc(-c2nc(N)ncc2F)c2cc(C#CC3(O)CCC3)ncc21` [Compound 95] were 7 nM, 470 nM, 95 nM and 150 nM.
With `COCCCn1cc(-c2nc(N)ncc2F)c2cc(C#CC(C)(O)C3CC3)nc(C(F)F)c21` (stereo not drawn) [Compound 96], the IC50 in assay [1] turned out to be 170 nM. In addition, the EC50 was above 10000 nM in the assay with LP-1 cells, 6600 nM in the assay with L-363 cells and above 10000 nM with JJN-3 cells.
With `CN1CC(n2cc(-c3nc(N)ncc3C(F)(F)F)c3cc(C#CC(C)(O)C4CC4)ncc32)C1` (stereo not drawn) [Compound 99], in assay [1], the IC50 was 110 nM. The EC50 worked out at 2000 nM with LP-1 cells, 1100 nM in the assay on L-363 cells and 1100 nM in the assay on JJN-3 cells.
Regarding `CC(O)(C#Cc1cc2c(-c3nc(N)ncc3C(F)(F)F)cn(C3COC3)c2cn1)C1CC1` (stereo not drawn) [Compound 100], the IC50 in assay [1] was 61 nM. Besides, the results for the EC50 in the assay with LP-1 cells, with L-363 cells and in the assay on JJN-3 cells were 3000 nM, 1500 nM and 1400 nM, respectively.
In the case of `COC(C)(C)Cn1cc(-c2nc(N)ncc2F)c2cc(C#CC(C)(O)C3CC3)ncc21` (stereo not drawn) [Compound 101], the IC50 in assay [1] was 38 nM. Besides, the EC50 was 220 nM in the assay with LP-1 cells, 160 nM in the assay with L-363 cells and 160 nM in the assay on JJN-3 cells.
For `CC(O)(C#Cc1cc2c(-c3nc(N)ncc3F)cn(C3CN(C4CC4)C3)c2cn1)C1CC1` (stereo not drawn) [Compound 104], the IC50 in assay [1] turned out to be 53 nM. Also, the results for the EC50 with LP-1 cells, with L-363 cells and in the assay on JJN-3 cells were 470 nM, 180 nM and 260 nM, respectively.
Taken in the same sequence, the figures for `CC(O)(C#Cc1cc2c(-c3nc(N)ncc3F)cn(CCCN3CCOCC3)c2cn1)C1CC1` (stereo not drawn) [Compound 105] were 190 nM, 530 nM, 140 nM and 200 nM.
Taken in the same sequence, the figures for `CCN1CCC(n2cc(-c3nc(N)ncc3F)c3cc(C#CC(C)(O)C4CC4)ncc32)CC1` (stereo not drawn) [Compound 106] were 95 nM, 340 nM, 90 nM and 120 nM.
In the same order, the values of `CN1CCC(n2cc(-c3nc(N)ncc3F)c3cc(C#CC(C)(O)C4CC4)ncc32)C1` (stereo not drawn) [Compound 107] are 88 nM, 150 nM, 57 nM and 78 nM.
For the compound `COCCN1CCC(n2cc(-c3nc(N)ncc3F)c3cc(C#CC(C)(O)C4CC4)ncc32)CC1` (stereo not drawn) [Compound 108], in assay [1], the IC50 worked out at 140 nM. Further, the EC50 came out at 640 nM in the assay with LP-1 cells, 280 nM in the assay with L-363 cells and 270 nM with JJN-3 cells.
In the case of `Cn1cc(Cn2cc(-c3nc(N)ncc3F)c3cc(C#CC(C)(O)C4CC4)ncc32)cn1` (stereo not drawn) [Compound 109], in assay [1], the IC50 is 120 nM. For the same compound, the EC50 with LP-1 cells worked out at 1200 nM; with L-363 cells, 360 nM; in the assay with JJN-3 cells, 460 nM.
